{
  "source": "patent US8618066B1",
  "about": "(priority 2003, dated 2013)",
  "molecules": {"B1": {"name": "NK-Lysin: peptide, source Sus scrofa (peptide, listed as Amaranthus caudatus)", "chain": "GYFCESCRKIIQKLEDMVGPQPNEDTVTQAASQVCDKLKILRGLCKKIMRSFLRRISWDILTGKKPQAICVDIKICKE"}, "B2": {"name": "Holotricin 3: peptide, source Holotrichia diomphalia (peptide, listed as Holotrichia diomphalia)", "chain": "YGPGDGHGGGHGGGHGGGHGNGQGGGHGHGPGGGFGGGHGGGHGGGGRGGGGSGGGGSPGHGAGGGYPGGHGGGHHGGYQTHGY", "modifications": "Holotricin 3", "notes": "peptide, source Holotrichia diomphalia"}},
  "key": {"[1]": {"tested_on": "Gram+ & Gram− bacteria, fungi, virus, mammalian/cancer cells", "settings": "cited from earlier work"}, "[2]": {"tested_on": "Bacillus atrophaeus (B. atrophaeus)", "assay_type": "cell-based"}, "[3]": {"tested_on": "Fusarium oxysporum f. sp. lycopersici (F. oxysporum)", "assay_type": "cell-based"}, "[4]": {"tested_on": "Fusarium oxysporum f. sp. lycopersici"}},
  "note": "Where two headings read alike, the source gives them in different places. No end group written: not given here.",
  "data": [
    {"molecule": "SEQ ID No. 44: synthetic antifungal peptide, Table 1 (MFKLRF)", "values": [
      {"measurement": "Activity", "setting": "[1]", "value": "Fungi"}
    ]},
    {"molecule": "FRLKHI [SEQ ID No. 198]", "values": [
      {"measurement": "Activity", "setting": "[1]", "value": "Gram+ & Gram−, Fungi"}
    ]},
    {"molecule": "SEQ ID No. 43: synthetic antifungal peptide, Table 1 (SFKLRF)", "values": [
      {"measurement": "Activity", "setting": "[1]", "value": "Fungi"}
    ]},
    {"molecule": "Nigrocin 1: peptide, source Rana nigromaculata (GLLDSIKGMAISAGKGALQNLLKVASCKLDKTC; Nigrocin 1; listed as Rana nigromaculata)", "values": [
      {"measurement": "Activity", "setting": "[1]", "value": "Gram+ & Gram−, Fungi"}
    ]},
    {"molecule": "GNCP-2: peptide, source Guinea pig (RCICTTRTCRFPYRRLGTCLFQNRVYTFCC; GNCP-2; listed as Cavia cutleri)", "values": [
      {"measurement": "Activity", "setting": "[1]", "value": "Gram+ & Gram−, Virus, Fungi"}
    ]},
    {"molecule": "Neutrophil defensin 1 (HANP-1): peptide, source Golden hamster (VTCFCRRRGCASRERHIGYCRFGNTIYRLCCRR; Neutrophil defensin 1 (HANP-1); listed as Mesocricetus auratus)", "values": [
      {"measurement": "Activity", "setting": "[1]", "value": "Gram+, Fungi"}
    ]},
    {"molecule": "Aurein 1.1: peptide, source Southern bell frog (GLFDIIKKIAESI; Aurein 1.1; listed as Litoria raniformis)", "values": [
      {"measurement": "Activity", "setting": "[1]", "value": "Gram+ & Gram−, Fungi"}
    ]},
    {"molecule": "FRLKFHI [ProteCoat, amino acid polymer consisting essentially of 7 amino acids]", "values": [
      {"measurement": "% Growth Inhibition, ProteCoat alone", "setting": "[2]", "value": 0, "unit": "%"},
      {"measurement": "% Growth Inhibition, ProteCoat alone", "setting": "[3]", "value": 44, "unit": "%"},
      {"measurement": "Activity", "setting": "[1]", "value": "Fungi"}
    ]},
    {"molecule": "Histone H2A (fragment): source Rainbow trout (AERVGAGAPVYL; Oncorhynchus mykiss; Histone H2A (Fragment))", "values": [
      {"measurement": "Activity", "setting": "[1]", "value": "Gram+, Fungi"}
    ]},
    {"molecule": "Ib-AMP4: peptide, source Impatiens balsamina (GRRCCGWGPGRRYCRRWC; Ib-antimicrobial peptidic agent4; listed as Impatiens balsamina)", "values": [
      {"measurement": "Activity", "setting": "[1]", "value": "Gram+ Fungi"}
    ]},
    {"molecule": "SEQ ID No. 175: synthetic antifungal peptide, Table 1 (WTFRYC)", "values": [
      {"measurement": "Activity", "setting": "[1]", "value": "Fungi"}
    ]},
    {"molecule": "Histatin 3: peptide, source Human (DSHAKRHHGYKRKFHEKHHSHRGYRSNYLYDN; Histatin 3; listed as Homo sapiens)", "values": [
      {"measurement": "Activity", "setting": "[1]", "value": "Gram+ & Gram−, Fungi"}
    ]},
    {"molecule": "SEQ ID No. 177: synthetic antifungal peptide, Table 1 (GYFSYPHGNLF; listed as Glomerella cingulata)", "values": [
      {"measurement": "Activity", "setting": "[1]", "value": "Fungi"}
    ]},
    {"molecule": "Indolicidin: peptide, source Bos Taurus (ILPWKWPWWPWRR; listed as Bos taurus)", "values": [
      {"measurement": "Activity", "setting": "[1]", "value": "Gram+ & Gram−, Virus, Fungi"}
    ]},
    {"molecule": "Hexapeptide: peptide, source Bovine (RRWQWR; hexapeptide; listed as Bos taurus)", "values": [
      {"measurement": "Activity", "setting": "[1]", "value": "Gram+ & Gram−, Virus, Fungi,"}
    ]},
    {"molecule": "Hepcidin 20: peptide, source Human (ICIFCCGCCHRSKCGMCCKT; Hepcidin 20; listed as Homo sapiens)", "values": [
      {"measurement": "Activity", "setting": "[1]", "value": "Fungi"}
    ]},
    {"molecule": "Antimicrobial peptide 1: peptide, source Common ice plant (AKCIKNGKGCREDQGPPFCCSGFCYRQVGWARGYCKNR; Antimicrobial peptide 1; listed as Mesembryanthemum crystallinum)", "values": [
      {"measurement": "Activity", "setting": "[1]", "value": "Gram+ & Gram−, Fungi"}
    ]},
    {"molecule": "Dhvar4: peptide, source Synthesis (KRLFKKLLFSLRKY; Synthesis dhvar4)", "values": [
      {"measurement": "Activity", "setting": "[1]; classes of organisms/cells the peptide is active against", "value": "Gram+ & Gram−, Fungi"}
    ]},
    {"molecule": "Ranatuerin-2CB: peptide, source Green frog (GLFLDTLKGLAGKLLQGLKCIKAGCKP; Rana clamitans; Ranatuerin-2CB)", "values": [
      {"measurement": "Activity", "setting": "[1]", "value": "Gram+ & Gram−, Fungi"}
    ]},
    {"molecule": "SEQ ID No. 181: synthetic antifungal peptide, Table 1 (YNLEPQGPKLQLWHW)", "values": [
      {"measurement": "Activity", "setting": "[1]", "value": "Fungi"}
    ]},
    {"molecule": "AC-AMP2: peptide, source Amaranthus caudatus (VGECVRGRCPSGMCCSQFGYCGKGPKYCGR; ends and bridges not checked; cysteine pairing not given here; listed as Amaranthus caudatus)", "values": [
      {"measurement": "Activity", "setting": "[1]", "value": "Gram+, Fungi"}
    ]},
    {"molecule": "SEQ ID No. 39: synthetic antifungal peptide, Table 1 (FHFKLRF)", "values": [
      {"measurement": "Activity", "setting": "[1]", "value": "Fungi"}
    ]},
    {"molecule": "SEQ ID No. 27: synthetic antifungal peptide, Table 1 (WRF)", "values": [
      {"measurement": "Activity", "setting": "[1]", "value": "Fungi"}
    ]},
    {"molecule": "FRLKFHI [antimicrobial peptidic agent-7]", "values": [
      {"measurement": "growth at the lowest peptide concentration tested", "setting": "[4]", "value": "clear retardation of growth"},
      {"measurement": "inhibition at the lowest peptide concentration tested", "setting": "[4]; 48 h, 0.78 mg/ml", "value": "less than 10%"}
    ]},
    {"molecule": "B1", "values": [
      {"measurement": "Activity", "setting": "[1]", "value": "Gram+ & Gram−, Fungi"}
    ]},
    {"molecule": "B2", "values": [
      {"measurement": "Activity", "setting": "[1]", "value": "Fungi"}
    ]}
  ]
}
